Numbers after ± are expanded uncertainties.
Legend:
[1] = refractive index (Na D-line) (dimensionless); details: 101.33 kPa, Liquid, Standard Abbe refractometry
[2] = Liquid; for mass density: 101.33 kPa

Row | SMILES | refractive index ([1]; 293.15 K) | mass density ([2]; 293.15 K) [kg/m3] | refractive index ([1]; 298.15 K) | mass density ([2]; 298.15 K) [kg/m3] | also measured
1 | ClCCCl [1,2-dichloroethane] | 1.4448 ± 0.0008 | 1252.1 ± 3.8 | – | – | vapor or sublimation pressure ([2]; 355.15 K): 95.5 ± 4 kPa
2 | CC(C)(C)O [2-methylpropan-2-ol] | – | – | 1.3852 ± 0.0008 | 781.2 ± 2.1 | vapor or sublimation pressure ([2]; 354.15 K): 95.5 ± 4 kPa
3 | ClC(Cl)C(Cl)Cl [1,1,2,2-tetrachloroethane] | 1.494 ± 0.0008 | 1594.5 ± 5.1 | – | – | vapor or sublimation pressure ([2]; 417.25 K): 95.5 ± 4 kPa
4 | CCC(C)O (configuration not stated) [butan-2-ol] | – | – | 1.3953 ± 0.0008 | 802.4 ± 2.2 | vapor or sublimation pressure ([2]; 371.25 K): 95.5 ± 4 kPa
5 | CN(C)C=O [dimethylformamide] | – | – | 1.4282 ± 0.0007 | 943.9 ± 2.5 | vapor or sublimation pressure ([2]; 421.15 K): 95.5 ± 4 kPa
6 | ClC=C(Cl)Cl [trichloroethene] | 1.4782 ± 0.0008 | 1464 ± 4.6 | – | – | vapor or sublimation pressure ([2]; 357.85 K): 95.5 ± 4 kPa
7 | CCO [ethanol] | – | – | 1.3591 ± 0.0008 | 784.9 ± 2.1 | vapor or sublimation pressure ([2]; 349.95 K): 95.5 ± 4 kPa
8 | CC(C)CO [2-methyl-1-propanol] | – | – | 1.3939 ± 0.0008 | 797.8 ± 2.1 | vapor or sublimation pressure ([2]; 379.76 K): 95.5 ± 5 kPa
9 | ClC(Cl)=C(Cl)Cl [tetrachloroethene] | 1.5058 ± 0.0008 | 1622.8 ± 5.3 | – | – | vapor or sublimation pressure ([2]; 392.15 K): 95.5 ± 4 kPa

From the NIST ThermoML archive (doi:10.1016/j.fluid.2006.08.018)
